In ChEMBL document CHEMBL3507680, “University of Dundee, Gates Library screen for HepG2 cell viability” one finds cytotoxicity data, which are given here for 99 compounds.

The data set can be described thus: Human HepG2 cell viability assay in 384 well format. The format is toxicity, cell-based. More on the design: dose 125 nL, time 70.5 hour; cytotoxicity at 70.5 h: concentration not given beside the values. The settings on record: HepG2 cells, read-out: Inhibition.
In the case of `Cc1cc(C(=O)N2CCc3nc(C4CCCN4)ncc3C2)cs1` (centres undefined), the cytotoxicity at 70.5 h was -4.19%.
`CCN(CC)C1(Cc2cc(-c3cccc(O)c3)on2)COC1`: the cytotoxicity at 70.5 h is -8.06%.
On to `COc1ccc(Cl)cc1CCNC(=O)N(C)CC1CCOC1` (centres undefined), for which the cytotoxicity at 70.5 h is -1.13%.
The figure for `CC(=O)NCCNCC1(O)CCCN(CCC2CCCCC2)C1=O` (centres undefined) is -1.79%; for `CCc1ccccc1CN1CCn2nc(CNC(C)=O)cc2C1` it is 59.7%.
As for `COc1c(Cl)cccc1NCc1csc(C)n1`, the figure is -8.65%.
As for `Cc1ccc(-c2cc(CN3CCc4cnc(C)nc4C3)on2)cc1`, the figure is -10.1%; as for `O=S(=O)(NCCNc1ccc(-n2cccc2)nn1)c1cccs1`, 3.82%.
Turning to `O=C(C[C@@H]1COC[C@H]2CN(Cc3ccncc3)C[C@@H]12)N1CCCC1`, the cytotoxicity at 70.5 h is 11.8%.
The figure for `CCN1CCN(C(=O)CCC2CCN(C(=O)CCSC)CC2)CC1` is 22.6%.
Turning to `COc1cccc(N2CCN(C(=O)C(OC)c3ccccc3)CC2=O)c1` (centres undefined), the cytotoxicity at 70.5 h is -7.1%.
With `CCNC(=O)CC1CC2(CCN(C(C)=O)CC2)c2cc(F)ccc21` (centres undefined), the cytotoxicity at 70.5 h was -5.07%.
Turning to `CS(=O)(=O)NCc1cncc2c1CCN(C(=O)N1CCCC1)C2`, the cytotoxicity at 70.5 h amounted to 11.1%.
Regarding `CCc1n[nH]c(C2CN(CCCOc3cccc(C)c3)CCO2)n1` (centres undefined), the cytotoxicity at 70.5 h is -3.37%.
Consider `Cc1ccc(S(=O)(=O)NC[C@H]2OC[C@@H](NCc3cccs3)[C@@H]2O)cc1`, for which the cytotoxicity at 70.5 h stood at 7.42%.
The figure for `Cc1ccc2c(c1)OCCCC2NCc1nccn1Cc1ccccc1` (centres undefined) is -6.01%.
The figure for `Cc1cc(C)n(NC(=O)c2cccc3c2OCC3)c(=O)c1` is -6.18%.
Consider `Cc1nn2cnnc2c(C)c1CCC(=O)Nc1nnc(C2CC2)s1`, for which the cytotoxicity at 70.5 h was -10.7%.
For the compound `COCCN(Cc1ccncc1)C(=O)CCSCc1ccc(F)cc1`, the cytotoxicity at 70.5 h came to 20%.
With `Cc1nc(CN2C(=O)COC3(CCN(C(N)=O)CC3)C2C)cs1` (centres undefined), the cytotoxicity at 70.5 h worked out at 3.95%.
For the compound `Cc1cc(NC(=O)Cc2ccccc2O)cnc1N1CCCCC1`, the cytotoxicity at 70.5 h was -12.3%.
As to `OC(c1ccccn1)C1CCN(Cc2cc3n(n2)CCCNC3)CC1` (centres undefined), the cytotoxicity at 70.5 h was -21%.
On to `CN(C)S(=O)(=O)c1ccc(F)c(NC(=O)COCC2CC2)c1`, for which the cytotoxicity at 70.5 h was -10.8%.
With `O=C(Nc1cn[nH]c1)N1CCCCCC1c1ccncc1` (centres undefined), the cytotoxicity at 70.5 h was -8.75%.
As for `Cc1cccnc1CN(C)C(C(=O)O)c1ccc(-n2cccn2)cc1` (centres undefined), the figure is -2.91%; as for `CC(C)n1cnnc1C1CCCN(S(=O)(=O)c2c[nH]cn2)C1` (centres undefined), -78.9%.
As for `CCOC(=O)c1n[nH]cc1CN1CCCC(N(C)Cc2ccccc2)C1` (centres undefined), the figure is 2.53%.
As for `Cc1cccc(CN2CC[C@@H]3[C@@H]2CCN3C(=O)Cc2cccs2)n1`, the figure is -11.7%; as for `O=C(c1cccc(Oc2ccccc2)c1)N1CCCC(O)(CO)CC1` (centres undefined), -8.12%; as for `CCc1csc(CNc2nc3c(s2)c(C)nn3C)n1`, 10.5%.
In the case of `CC(C)N1CC(C(=O)NCc2cccnc2-n2cccn2)CC1=O` (centres undefined), the cytotoxicity at 70.5 h was -11%.
As for `CCN(Cc1ccc(OC)c(F)c1)C(=O)c1ccc(C)[nH]c1=O`, the cytotoxicity at 70.5 h is -3.76%.
`CC1CCc2n[nH]c(C(=O)NCCCc3ccccn3)c2C1` (centres undefined): the cytotoxicity at 70.5 h was -7.91%.
`CCc1nc(CN2CCCC(NCc3nc(C)c(C)o3)C2)no1` (centres undefined): the cytotoxicity at 70.5 h was -10.5%.
The figure for `COCc1nc(C(=O)N2CCCC2c2cc(C)on2)cs1` (centres undefined) is -9.83%.
Take `Cc1ccc(CNC(C)c2ccc(OCC(=O)NC3CC3)cc2)o1` (centres undefined): the cytotoxicity at 70.5 h is -1.22%.
As for `CCCS(=O)(=O)N1CCC(NC(=O)c2ccc(Cl)s2)CC1`, the figure is -11.6%.
As to `CC(C)(CO)CCCNC(=O)NC1(c2cccc(F)c2)CC1`, the cytotoxicity at 70.5 h is -8.07%.
The figure for `c1cc(-c2nc3c(c(NCCn4ccnn4)n2)CCNCC3)ccn1` is 0.89%.
Regarding `Cc1cc(C(=O)N2C[C@@H](CN3CCOCC3)C[C@H](CO)C2)nc(C)n1`, the cytotoxicity at 70.5 h is -5.29%.
The figure for `CN1CCN(C[C@H]2CC[C@@H](Cc3ccc4c(c3)OCO4)O2)CC1` is -6.19%; for `O=C(O)[C@@H]1CN(C(=O)Cc2ccccc2Cl)C[C@H]1C1CC1` it is -15.8%.
The figure for `COCCN1CCC1c1cc(NC2CCCC2)nc(C)n1` (centres undefined) is -5.31%; for `COCC(=O)NCC[C@H]1CC(C)(C)Oc2ccccc21` it is -3.02%; for `O=S(=O)(c1ccccc1)N1C[C@@H]2CCN[C@@H]2C1` it is -7.19%.
As for `O=C(CC1CCN(c2ncnc3ccccc23)CC1)N1CCCC1`, the figure is -6.95%; as for `CCC(=O)N1CCC(c2ncc(C(=O)Nc3ccccc3)c(C)n2)C1` (centres undefined), -3.38%; as for `COc1ccccc1C(=O)N(C)C1CCN(c2ccccn2)CC1`, -0.00253%.
`O=C(c1cc(C2CC2)[nH]n1)N1CCN(Cc2ccncc2)CC1`: the cytotoxicity at 70.5 h was -11.9%.
As for `CNc1cc(N2CCCC2CNCc2ccccn2)ncn1` (centres undefined), the figure is 14.8%; as for `Cc1ncsc1CN1CC[C@H]2OCC[C@@]2(C(=O)N(C)C)C1`, -3.45%.
As for `Cc1nccn1CCN1C(=O)CC2(CCCC2)CC1=O`, the figure is -9%.
The figure for `Cc1ccc2c(C)c(C(=O)NCCc3csc(N)n3)oc2c1` is 7.44%.
`CCOc1ccccc1OCCN(C)Cc1nccn1C`: the cytotoxicity at 70.5 h is -5.37%.
The figure for `c1ccc(Cn2cccn2)c(CNCC2CNc3ccnn3C2)c1` (centres undefined) is -11.7%; for `COc1cccc(OCCCc2cncc(C(N)=O)c2)c1` it is -13.7%.
In the case of `COc1ccc(S(=O)(=O)N2CCC[C@@H]3CN(C(=O)C4CC4)C[C@@H]32)cc1F`, the cytotoxicity at 70.5 h was 21.2%.
On to `Brc1cccc(C2(CNCc3cc[nH]c3)CCOCC2)c1`, for which the cytotoxicity at 70.5 h is 17.6%.
For the compound `Cc1ncc(CN2CCCN(Cc3noc(C4CC4)n3)CC2)s1`, the cytotoxicity at 70.5 h was found to be 23.6%.
`Cc1[nH]ncc1CCCNC(=O)Nc1ccc(F)cc1`: the cytotoxicity at 70.5 h turned out to be 3.38%.
For `O=C(CCN1CCCO1)N1CC[C@@H](c2ccc3ccccc3c2)[C@H](O)C1`, the cytotoxicity at 70.5 h worked out at 0.165%.
`COCCN1CCC(Cc2cnc(-c3ccccc3C(=O)O)cn2)CC1`: the cytotoxicity at 70.5 h worked out at 8.51%.
Turning to `COc1c(C)cnc(CSc2nnc(N3CCCC3)s2)c1C`, the cytotoxicity at 70.5 h came out at 8.14%.
With `CCc1nc(CCNC(=O)Nc2cc(C(N)=O)ccc2OC)cs1`, the cytotoxicity at 70.5 h was -12.4%.
On to `CCOCC(=O)Nc1cccc(Oc2ccccn2)c1`, for which the cytotoxicity at 70.5 h was -3.31%.
The figure for `COCC1CN(S(C)(=O)=O)Cc2ncn(CC3CC3)c21` (centres undefined) is -6.83%; for `CC(C)n1c(=O)c2sccc2n(CC(=O)Nc2ccccc2)c1=O` it is -11%.
As for `COCCC(=O)N[C@H]1CC[C@H](Nc2nccc(-c3ccncc3)n2)C1`, the figure is -6.41%.
As for `Cc1ncnc2c1CCN(c1cc(C(F)(F)F)ncn1)CC2`, the figure is -17.8%; as for `CCc1ccccc1-c1cc(OC)nc(N)n1`, -8.45%; as for `CN(Cc1cc(C(C)(C)C)n[nH]1)C(=O)c1ccc2nccn2c1`, -2.34%.
As to `Cc1cnc(N2CC[C@H]3[C@@H]2CCC(=O)N3c2ccccc2)nc1`, the cytotoxicity at 70.5 h was 5.23%.
In the case of `Cc1nnc2n1CCN(C(=O)c1cc(C)n(-c3cccnc3)c1C)C2`, the cytotoxicity at 70.5 h was -1.82%.
As to `CN1CCN([C@@H]2CN(C(=O)Cc3ccsc3)[C@@H]3CCCO[C@H]23)CC1`, the cytotoxicity at 70.5 h is -4.38%.
The figure for `CC(C)(C)CN[C@@H]1CO[C@H](CNC(=O)C2CCCC2)[C@H]1O` is -14%; for `C1CN(CCN2CCOCC2)CCN1` it is -0.136%; for `CCn1c(N)nc2cc(C(=O)NCc3ccccc3Cl)cnc21` it is 0.502%.
The figure for `CCOCCCNC(=O)C1(C)CCC(=O)N1Cc1ccccc1F` (centres undefined) is 0.95%.
Regarding `CC(C)CCN1CCN(C(=O)c2cccnc2-n2cncn2)CC1`, the cytotoxicity at 70.5 h was -3.48%.
With `CCN1CC(C(=O)N2CCN(CCn3cccc3)CC2)CC1=O` (centres undefined), the cytotoxicity at 70.5 h turned out to be 18.1%.
On to `CCCc1nnsc1C(=O)N1CCN(CC(C)O)CC1` (centres undefined), for which the cytotoxicity at 70.5 h was -1.92%.
As for `Cc1cc(C(=O)N2CCc3c(CN(C)C)nn(C)c3C2)[nH]n1`, the figure is -12.8%.
For `Cc1cc(-c2cnc(NC3CCCC3)nc2-c2ccc(C)o2)on1`, the cytotoxicity at 70.5 h is -5.77%.
`COc1ccc(CN2CCC3(CC2)NC(=O)CC3c2ccncc2)cc1` (centres undefined): the cytotoxicity at 70.5 h is -7.29%.
`Cc1ccc(C(N)=O)c(N2C[C@H]3OC(=O)N(C4CCCC4)[C@H]3C2)n1`: the cytotoxicity at 70.5 h was -11.9%.
Turning to `COCc1cc(O)nc(C2CCCN(Cc3cc(OC)ccc3F)C2)n1` (centres undefined), the cytotoxicity at 70.5 h was -4.84%.
As for `CC(C(=O)NCCN1CCOCC1)n1cncn1` (centres undefined), the figure is -11.7%; as for `Cc1ccc(C)c(C(=O)N2CCC3(CCC(=O)N(CC(N)=O)C3)CC2)c1`, 29.9%.
As for `Cc1ccc(OCCC(=O)NCCCN2CCCC2=O)c(C)c1`, the figure is 17.8%; as for `CSc1ccccc1C(=O)NCCCN1CCc2ccccc2C1`, -5.68%.
As for `O=c1cc(CN(CCO)C2CC2)nc2ccc(Cl)cn12`, the figure is 14.2%; as for `Cc1ccc(NC(=O)N2CCC3(CCC(C(=O)N(C)C)O3)CC2)cc1` (centres undefined), -4.12%; as for `Cc1ccc(-c2nc(CC(=O)N3CCN(c4cnccn4)CC3)cs2)o1`, -4.05%.
For `CCN(CC)S(=O)(=O)N1CCCC(c2nccn2Cc2cccnc2)C1` (centres undefined), the cytotoxicity at 70.5 h was -5.79%.
On to `c1cnc(N2CCC3(COCCN(CC4CCOCC4)C3)C2)nc1` (centres undefined), for which the cytotoxicity at 70.5 h amounted to 3.27%.
With `O=C(NCC1(O)CCOC1)c1ccccc1Cl` (centres undefined), the cytotoxicity at 70.5 h was -3.89%.
Consider `CCOC(=O)N1CCN(C(=O)C(CC)n2cccn2)CC1` (centres undefined), for which the cytotoxicity at 70.5 h is 5.86%.
The figure for `Cn1ccnc1COc1ccc(CSc2nnnn2C)cc1` is -11.4%.
Turning to `OC(CNCc1nnc2ccccn12)c1ccc2c(c1)OCO2` (centres undefined), the cytotoxicity at 70.5 h was -8%.
